Laboratory results: patent publication US6605606B1, “Solid forms of tin ethyl etiopurpurin and processes for producing such forms” (Miravant Pharmaceuticals, Inc., priority 2000, dated 2003)

How the values were obtained:
[1] = Light stability of SnET2 solid forms under visible light irradiation (XRPD and HPLC); format: physicochemical; conditions: for XRPD Result / Impurity Levels by HPLC Peak 1 (photooxidized product) / Impurity Levels by HPLC Peak 2 / Impurity Levels by HPLC Peak 3: solid
Method: Comparative stability studies were performed on crystalline Form I, crystalline Form II, disordered Form II and the amorphous form. Light stability studies were carried out in a closed, black 30×16×12 inch cabinet containing two 24-inch, 20-watt fluorescent bulbs as the light source. The samples were placed approximately 10 inches from the bulbs. Each sample consisted of approximately 30-mg of SnET2 in a 1-dram vial. Samples were removed at the time intervals indicated in Table 11, analyzed by XRPD and HPLC.

[2] = Relative thermodynamic stability of crystalline forms (slurry interconversion, XRPD); format: physicochemical; conditions: slurrying in dichloromethane, acetone and mixtures, ambient or 50° C.
Text: Unsolvated, anhydrous, polymorphic forms of a compound differ in their free energies. A set of polymorphs may be ranked in order of thermodynamic stability under a given set of pressure and temperature conditions. […] Production of the stable form is said to occur under thermodynamic conditions. […] Phys. Chem. 22:306 (1897)]. […] Kinetic and thermodynamic conditions differ in the amount of energy utilized. While the absolute amount depends on the compound in question, relatively speaking, kinetic conditions involve lower temperatures and shorter reaction times while thermodynamic conditions involve higher temperatures and longer reaction times.
Under subdued lighting, a slurry containing a 1:1 mixture of SnET2 crystalline Form I and SnET2 crystalline Form II (100-200 mg each) in 1-3 mL of a solvent, listed in Table 13 below, was agitated in a tightly-capped tube at ambient temperature or at 50° C. The undissolved solid was collected by filtration and found, by XRPD analysis, to be crystalline Form II.

[3] = visible light (two 20-watt fluorescent bulbs, approx. 10 inches), 0 days
[4] = visible light irradiation, 0 days
[5] = visible light irradiation, 2 days
[6] = visible light irradiation, 4 days
[7] = visible light irradiation, 6 days
[8] = visible light irradiation, 8 days
[9] = visible light irradiation, 19 days
[10] = visible light irradiation, 29 days

## Tin ethyl etiopurpurin [Disordered Form II]
[1]; [3]
  XRPD Result: Disordered FII
[1]; [4]
  Impurity Levels by HPLC Peak 1 (photooxidized product): 0.65
  Impurity Levels by HPLC Peak 2: 0.10
  Impurity Levels by HPLC Peak 3: 0.19
[1]; [5]
  Impurity Levels by HPLC Peak 1 (photooxidized product): 1.24
  Impurity Levels by HPLC Peak 2: 0.13
  Impurity Levels by HPLC Peak 3: 0.19
  XRPD Result: Disordered FII
[1]; [6]
  Impurity Levels by HPLC Peak 1 (photooxidized product): 1.98
  Impurity Levels by HPLC Peak 2: 0.09
  Impurity Levels by HPLC Peak 3: 0.27
  XRPD Result: Disordered FII
[1]; [7]
  Impurity Levels by HPLC Peak 1 (photooxidized product): 2.51
  Impurity Levels by HPLC Peak 2: 0.11
  Impurity Levels by HPLC Peak 3: 0.28
  XRPD Result: Disordered FII
[1]; [8]
  Impurity Levels by HPLC Peak 1 (photooxidized product): 1.77
  Impurity Levels by HPLC Peak 2: 0.12
  Impurity Levels by HPLC Peak 3: 0.28
  XRPD Result: Disordered FII
[1]; [9]
  Impurity Levels by HPLC Peak 1 (photooxidized product): 3.54
  Impurity Levels by HPLC Peak 2: 0.06
  Impurity Levels by HPLC Peak 3: 0.32
  XRPD Result: Disordered FII
[1]; [10]
  Impurity Levels by HPLC Peak 1 (photooxidized product): 4.92
  Impurity Levels by HPLC Peak 2: 0.10
  Impurity Levels by HPLC Peak 3: 0.51
  XRPD Result: Disordered FII

## Tin ethyl etiopurpurin [Amorphous]
[1]; exposed to visible light, compared with the other solid forms
  rate of photoproduct formation by HPLC: produced more rapidly in the amorphous form than any other form
[1]; [3]
  XRPD Result: Amorphous
[1]; [4]
  Impurity Levels by HPLC Peak 1 (photooxidized product): 1.62
  Impurity Levels by HPLC Peak 2: 0.70
  Impurity Levels by HPLC Peak 3: 0.00
[1]; [5]
  Impurity Levels by HPLC Peak 1 (photooxidized product): 6.60
  Impurity Levels by HPLC Peak 2: 0.71
  Impurity Levels by HPLC Peak 3: 0.03
  XRPD Result: Amorphous
[1]; [6]
  Impurity Levels by HPLC Peak 1 (photooxidized product): 9.78
  Impurity Levels by HPLC Peak 2: 0.73
  Impurity Levels by HPLC Peak 3: 0.15
  XRPD Result: Amorphous
[1]; [7]
  Impurity Levels by HPLC Peak 1 (photooxidized product): 1.84
  Impurity Levels by HPLC Peak 2: 0.11
  Impurity Levels by HPLC Peak 3: 0.23
  XRPD Result: Amorphous
[1]; [8]
  Impurity Levels by HPLC Peak 1 (photooxidized product): 12.66
  Impurity Levels by HPLC Peak 2: 0.70
  Impurity Levels by HPLC Peak 3: 0.27
  XRPD Result: Amorphous
[1]; [9]
  Impurity Levels by HPLC Peak 1 (photooxidized product): 14.13
  Impurity Levels by HPLC Peak 2: 0.73
  Impurity Levels by HPLC Peak 3: 0.38
  XRPD Result: Amorphous
[1]; [10]
  Impurity Levels by HPLC Peak 1 (photooxidized product): 18.72
  Impurity Levels by HPLC Peak 2: 0.76
  Impurity Levels by HPLC Peak 3: 0.38
  XRPD Result: Amorphous

## Tin ethyl etiopurpurin [Crystalline Form I]
[1]; [3]
  XRPD Result: Crystalline
[1]; [4]
  Impurity Levels by HPLC Peak 1 (photooxidized product): 0.20
  Impurity Levels by HPLC Peak 2: 0.15
  Impurity Levels by HPLC Peak 3: 0.0
[1]; [5]
  Impurity Levels by HPLC Peak 1 (photooxidized product): 0.89
  Impurity Levels by HPLC Peak 2: 0.16
  Impurity Levels by HPLC Peak 3: 0.0
  XRPD Result: Crystalline
[1]; [6]
  Impurity Levels by HPLC Peak 1 (photooxidized product): 9.61
  Impurity Levels by HPLC Peak 2: 0.84
  Impurity Levels by HPLC Peak 3: 0.0
  XRPD Result: Crystalline
[1]; [7]
  Impurity Levels by HPLC Peak 1 (photooxidized product): 2.16
  Impurity Levels by HPLC Peak 2: 0.14
  Impurity Levels by HPLC Peak 3: 0.09
  XRPD Result: Crystalline
[1]; [8]
  Impurity Levels by HPLC Peak 1 (photooxidized product): 1.87
  Impurity Levels by HPLC Peak 2: 0.15
  Impurity Levels by HPLC Peak 3: 0.13
  XRPD Result: Crystalline
[1]; [9]
  Impurity Levels by HPLC Peak 1 (photooxidized product): 2.39
  Impurity Levels by HPLC Peak 2: 0.34
  Impurity Levels by HPLC Peak 3: 0.17
  XRPD Result: Crystalline
[1]; [10]
  Impurity Levels by HPLC Peak 1 (photooxidized product): 4.47
  Impurity Levels by HPLC Peak 2: 0.11
  Impurity Levels by HPLC Peak 3: 0.21
  XRPD Result: Crystalline

## Tin ethyl etiopurpurin [Crystalline Form II]
[1]; [3]
  XRPD Result: Crystalline
[1]; [4]
  Impurity Levels by HPLC Peak 1 (photooxidized product): 0.00
  Impurity Levels by HPLC Peak 2: 0.23
  Impurity Levels by HPLC Peak 3: 0.00
[1]; [5]
  Impurity Levels by HPLC Peak 1 (photooxidized product): 0.44
  Impurity Levels by HPLC Peak 2: 0.23
  Impurity Levels by HPLC Peak 3: 0.04
  XRPD Result: Crystalline
[1]; [6]
  Impurity Levels by HPLC Peak 1 (photooxidized product): 0.56
  Impurity Levels by HPLC Peak 2: 0.24
  Impurity Levels by HPLC Peak 3: 0.09
  XRPD Result: Crystalline
[1]; [7]
  Impurity Levels by HPLC Peak 1 (photooxidized product): 0.82
  Impurity Levels by HPLC Peak 2: 0.21
  Impurity Levels by HPLC Peak 3: 0.10
  XRPD Result: Crystaliine
[1]; [8]
  Impurity Levels by HPLC Peak 1 (photooxidized product): 0.96
  Impurity Levels by HPLC Peak 2: 0.21
  Impurity Levels by HPLC Peak 3: 0.15
  XRPD Result: Crystalline
[1]; [9]
  Impurity Levels by HPLC Peak 1 (photooxidized product): 1.12
  Impurity Levels by HPLC Peak 2: 0.18
  Impurity Levels by HPLC Peak 3: 0.14
  XRPD Result: Crystalline
[1]; [10]
  Impurity Levels by HPLC Peak 1 (photooxidized product): 1.68
  Impurity Levels by HPLC Peak 2: 0.17
  Impurity Levels by HPLC Peak 3: 0.11
  XRPD Result: Crystalline
[2]
  relative (thermodynamic) stability of crystalline forms: thermodynamically more stable form
[2]; listed as crystalline Form II
  relative (thermodynamic) stability of crystalline forms: more stable than crystalline Form I
